In the supplement of paper PMC4380931:

Legend:
SKMEL28 [1] = assay: apoptotic fraction of cells (caspase-3 NucView488 positive); higher = more apoptosis
Protocol: (§1)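 BRAF V600E/D melanoma cell lines were seeded in 96-well plates, treated in 4 replicates with seven doses (3.16 nM to 3.16 uM) of RAF/MEK inhibitors for 24, 48 or 72 h, and stained with Hoechst 33342 (nuclei) and DEVD-NucView488 caspase-3 substrate. Plates were imaged on an Operetta. Relative viability is the cell count normalised to a DMSO-treated control; apoptosis fraction is the fraction of NucView488-positive nuclei.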

MMACSF = assay: as above
Protocol: as §1

K2 = assay: as above
Protocol: as §1

COLO858 [2] = assay: as above
Protocol: as §1

RVH421 = assay: as above
Protocol: as §1

SKMEL28 [3] = assay: relative viability (cell count relative to DMSO-treated control) (fraction of DMSO control); higher = more viable cells / less drug effect
Protocol: as §1

COLO858 [4] = assay: as above
Protocol: as §1

Cc1ccc(NC(=O)c2cccc(C(C)(C)C#N)c2)cc1Nc1ccc2ncn(C)c(=O)c2c1 [AZ628]
Details | apoptotic fraction of cells, COLO858 [2] | apoptotic fraction of cells, K2 | apoptotic fraction of cells, MMACSF | apoptotic fraction of cells, RVH421 | apoptotic fraction of cells, SKMEL28 [1] | relative viability, COLO858 [4] | relative viability, SKMEL28 [3]
24 h, 0.00316 µM | 0.0485 | 0.00396 | 0.0452 | 0.0557 | – | 0.923 | –
24 h, 0.01 µM | 0.0403 | 0.003 | 0.0505 | 0.0513 | – | 1.12 | –
24 h, 0.0316 µM | 0.0435 | 0.00276 | 0.0425 | 0.04611 | – | 1.16 | –
24 h, 0.1 µM | 0.0728 | 0.00598 | 0.0308 | 0.0493 | – | 0.982 | –
24 h, 0.316 µM | 0.105 | 0.0287 | 0.0456 | 0.0559 | – | 0.938 | –
24 h, 1 µM | 0.136 | 0.117 | 0.0524 | 0.0518 | – | 0.902 | –
24 h, 3.16 µM | 0.171 | 0.135 | 0.0606 | 0.0578 | – | 0.816 | –
48 h, 0.00316 µM | 0.0518 | 0.00258 | 0.0483 | 0.0503 | 0.04 | 0.965 | 0.879
48 h, 0.01 µM | 0.0435 | 0.00301 | 0.0434 | 0.053 | 0.0326 | 1.08 | 1.4
48 h, 0.0316 µM | 0.0477 | 0.00475 | 0.0445 | 0.0555 | 0.032 | 0.778 | 1.44
48 h, 0.1 µM | 0.12 | 0.0219 | 0.0497 | 0.0583 | 0.0352 | 0.48 | 1.16
48 h, 0.316 µM | 0.221 | 0.0649 | 0.0653 | 0.0645 | 0.0404 | 0.368 | 0.947
48 h, 1 µM | 0.296 | 0.254 | 0.159 | 0.0779 | 0.063 | 0.319 | 0.896
48 h, 3.16 µM | 0.436 | 0.358 | 0.25 | 0.108 | 0.09 | 0.248 | 0.614
72 h, 0.00316 µM | 0.0847 | – | 0.0431 | 0.0338 | 0.0319 | 1.05 | 1.13
72 h, 0.01 µM | 0.0691 | – | 0.0411 | 0.032 | 0.028 | 1.13 | 1.01
72 h, 0.0316 µM | 0.0679 | – | 0.0335 | 0.038 | 0.0262 | 0.716 | 0.791
72 h, 0.1 µM | 0.109 | – | 0.083 | 0.0442 | 0.0319 | 0.475 | 0.526
72 h, 0.316 µM | 0.225 | – | 0.226 | 0.0517 | 0.0526 | 0.392 | 0.507
72 h, 1 µM | 0.381 | – | 0.465 | 0.105 | 0.107 | 0.307 | 0.489
72 h, 3.16 µM | 0.534 | – | 0.62 | 0.165 | 0.142 | 0.213 | 0.442
